We go through 8 molecules from patent US20230190717A1, “P38 GAMMA INHIBITORS AND METHOD OF USE THEREOF” (City of Hope, priority 2017, published 2023).

Entries after “also recorded” stand apart in the source; their conditions may differ.

For test [1], the system named is Hut78 cells. Description: CellTiterGlo cell viability, Hut78. Format: cell-based, human. Particulars: for effect on viability of Hut78 cells: varying concentrations, 72 hr; for IC50: Homo sapiens, HuT78, 72 h.
Description: (§2) Viability assays using trypan blue exclusion and CellTiterGlo Cell Viability Assay: Cell viability was calculated by diluting cell suspensions 1:1 in 0.4% TRYPAN BLUE solution (Sigma, St. Louis, Mo.) and counting the number of viable cells using a TC20™ automated cell counter (Bio-Rad, Irvine, Calif.) that automatically excludes the number of non-viable cells stained with trypan blue per total cells. […] All data points are an average of triplicate experiments.
(§3) Absorbance was monitored at 490 nm using an automated BMG PHERAstar plate reader (BMG Labtech). […] All experiments are repeated in three independent experiments and data represented are the average of triplicate experiments.
Test [2] has as its system phosphorylation of Akt at ser473. Description: Western blot of Akt Ser473 phosphorylation in Hut78. Format: cell-based, human. Particulars: Hut78, 4 hr treatment.
Description: Western blot: Western blots were performed as described previously [5]. Rabbit primary antibodies (Cell Signaling Technology (CST), Danvers, Mass.) were used at the following dilutions: anti-p38α, -p38β, -p38γ, and -p38δ (1:1000), anti-B-tubulin (1:2000), anti-p38 GAPDH 1:1000. […] For detection of p38γ protein level in SS patient samples we used a monoclonal antibody that close to N-terminus of human p38γ MAPK (SAPK3) from Abcam ((ab205926).
For another test, the target named is T1, p38 γ (Homo sapiens, UniProt P53778).
T1 sequence (P53778 1-367): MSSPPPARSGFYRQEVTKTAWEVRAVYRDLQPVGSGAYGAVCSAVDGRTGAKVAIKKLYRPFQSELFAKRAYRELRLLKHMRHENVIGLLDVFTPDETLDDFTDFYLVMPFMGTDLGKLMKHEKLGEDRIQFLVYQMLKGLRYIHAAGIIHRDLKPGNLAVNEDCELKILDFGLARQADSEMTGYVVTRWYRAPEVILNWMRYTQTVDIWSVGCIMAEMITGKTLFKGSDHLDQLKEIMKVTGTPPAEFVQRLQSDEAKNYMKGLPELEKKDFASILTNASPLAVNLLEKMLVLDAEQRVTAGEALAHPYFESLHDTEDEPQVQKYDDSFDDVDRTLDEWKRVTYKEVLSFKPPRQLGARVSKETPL
Briefly: ADP-Glo in vitro kinase assay, p38γ. Format: biochemical. Details: human recombinant p38 α, β, γ or δ protein (active full-length); purchased SignalChem; host or cells: baculovirus in Sf9 insect cells. Particulars: for inhibitory kinase activity against p38γ: PI3K inhibitors at 1 and 10 μM; for IC50: in vitro inhibition assay.

The test system of test [3] is p38γ. Description: p38γ inhibition at the concentration used in the RNAi library screen. Particulars: 10 uM, data not shown. The text has this: Synthetic lethal RNAi screen. We will use a synthetic lethal RNAi screen in the presence of sub-lethal p38γ inhibition to identify critical downstream signaling components in CTCL (FIG. 31). We will transduce control and p38γ inhibitor-treated Hut78 CTCL cells with a pooled retroviral RNAi library that targets genes involved in human cancers. Because loss of p38γ alone causes CTCL cell death, we will titrate the dose and/or length of exposure to the p38γ inhibitor to ensure a sub-lethal effect. The target gene of an shRNA that causes death in cells treated with sub-lethal p38γ inhibitor but not control cells will be identified as synthetic lethal/synergistic. Based on our preliminary data showing synergy between F7 and HDACi, we are expecting to identify HDAC family members in the RNAi screen. We will further narrow down the corresponding HDACi for each HDAC member identified, and study potential synergistic effects to achieve of killing CTCL cells. For example, our preliminary data has shown using an RNAi library plus the p38 inhibitor Ly2228820, we have successfully selected loss of HDAC3 as a synergistically lethal element to p38 pathway inhibition, including α, β, and γ isoforms of p38 by LY2228820 (10 uM) […] We will further test the combination of p38γ inhibition with several HDAC3 inhibitors (e.g., RGFP966) for further mechanistic study in Hut78 cells.

Test [4] has as its target T2, p38γ (Mus musculus, UniProt O08911).
T2 construct: host or cells: mice (in vivo)
Particulars: requires a high dose; cited from earlier work.

Another test relates to HH cells. Briefly: CellTiterGlo cell viability, HH. The class given is cell-based. Particulars: Homo sapiens, 72 h.
Test [5] relates to CTCL cells. Description: Cell viability, CTCL cells (pirfenidone). The class given is cell-based. Particulars: Homo sapiens, read-out: IC50 CTCL cell growth / cell killing.
For the next test, the system named is H9 cells. Briefly: CellTiterGlo cell viability, H9. Particulars: Homo sapiens, H9, 72 h.
Test [6] has as its system p38γ. Briefly: Time-resolved fluorescence energy transfer enzyme kinetic analysis. The class given is biochemical.
Test [7] relates to p38γ substrate DLGH1 at Ser158. Description: Western blot of Hut78 cells for phosphorylation of p38γ substrate. The class given is cell-based, human.
The next test relates to SS patient cells. Description: Apoptosis and growth in primary SS patient cells. Format: cell-based, human.
A further test concerns healthy CD4+ T cells. Briefly: Apoptosis and growth in healthy CD4+ T cells. The class given is cell-based, human. Particulars: FIG. 19E.
For the next test, the target named is PI3Kγ (Homo sapiens, UniProt P48736). Particulars: PI3Kγ isoform; cited from earlier work.
The test system of test [8] is CTCL cells. Description: CTCL cell growth / killing. Format: cell-based.
The subject of another test is Hut78 CTCL cell line. Briefly: Annexin V/PI flow cytometry, Hut78. The class given is cell-based, human. Particulars: Hut78, 200 nM, 24 h. The text has this:
(§1) Data presented are one experiment in triplicate.

In test [9] the test system is PBMCs isolated from an SS patient. Description: Annexin V/PI flow cytometry, SS patient PBMCs. The class given is cell-based, human. Particulars: SS PBMC, 200 nM, 24 h.
From the text: as §1

Test [10] deals with p38γ. Description: p38 isoform kinase activity (FIG. 20A). Format: biochemical.
The test system of test [11] is p38γ. Description: p38γ mRNA level and protein expression (Western blot). The class given is cell-based. Particulars: Western blot, 24 hr, 500 nM. The text has this: qRT-PCR (real-time quantitative reverse transcription PCR): Total RNA was generated using TRIZOL reagent (Life Technologies, Carlsbad, Calif.) followed by double DNase treatment and column purification using Qiagen RNeasy Clean-up (Qiagen, Germantown, Md.). The Invitrogen […] III First-Strand Synthesis System was used for cDNA synthesis and TaqMan 5700 Sequence Detection System (Applied Biosystems, Foster City, Calif.) were used for qRT-PCR. All PCR reactions were run in triplicate. The amplified transcripts were quantified using the comparative CT method as described. cDNA and primers for MAPK11, 12, 13, and 14 and GAPDH (Table 9) were added to SYBR GREEN PCR Master Mix (SYBR Green I Dye, […]® DNA polymerase, dNTPs with dUTP and optimal buffer components; Applied Biosystems) and subjected to PCR amplification (1 cycle at 95° C. for 3 min; 35 cycles at 95° C. for 15 s and 55° C. for 30 s; 1 cycle at 50° C. for 2 min).

Another test concerns the target T3, p38δ (Homo sapiens, UniProt O15264).
T3 sequence (O15264 1-365): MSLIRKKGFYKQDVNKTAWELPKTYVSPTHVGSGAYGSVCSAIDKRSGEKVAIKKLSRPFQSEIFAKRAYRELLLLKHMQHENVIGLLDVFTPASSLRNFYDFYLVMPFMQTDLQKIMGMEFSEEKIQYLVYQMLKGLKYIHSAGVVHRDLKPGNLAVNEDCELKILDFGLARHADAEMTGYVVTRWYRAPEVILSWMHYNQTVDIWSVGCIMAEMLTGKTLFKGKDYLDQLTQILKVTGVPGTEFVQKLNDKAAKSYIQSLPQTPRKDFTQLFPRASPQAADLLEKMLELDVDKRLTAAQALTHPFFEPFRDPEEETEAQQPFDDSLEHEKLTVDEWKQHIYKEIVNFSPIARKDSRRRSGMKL
Description: p38 isoform kinase activity (FIG. 20A). On the set-up: human recombinant p38 α, β, γ or δ protein (active full-length); purchased SignalChem; host or cells: baculovirus in Sf9 insect cells. Format: biochemical. Particulars: p38δ (printed "6").

For test [12], the system named is p38γ substrate DLGH1 at Ser158. Briefly: Immunohistochemistry in F7-treated CTCL xenograft mouse tissue. The class given is in vivo. Particulars: data not shown.
Test [13] deals with Hut78 cells. Description: Hut78 cell proliferation / viability. Format: cell-based, human.
Another test concerns Hut78 xenografts. Briefly: Hut78 xenograft tumor growth in mice. The class given is in vivo.

T2 sequence (O08911 whole entry): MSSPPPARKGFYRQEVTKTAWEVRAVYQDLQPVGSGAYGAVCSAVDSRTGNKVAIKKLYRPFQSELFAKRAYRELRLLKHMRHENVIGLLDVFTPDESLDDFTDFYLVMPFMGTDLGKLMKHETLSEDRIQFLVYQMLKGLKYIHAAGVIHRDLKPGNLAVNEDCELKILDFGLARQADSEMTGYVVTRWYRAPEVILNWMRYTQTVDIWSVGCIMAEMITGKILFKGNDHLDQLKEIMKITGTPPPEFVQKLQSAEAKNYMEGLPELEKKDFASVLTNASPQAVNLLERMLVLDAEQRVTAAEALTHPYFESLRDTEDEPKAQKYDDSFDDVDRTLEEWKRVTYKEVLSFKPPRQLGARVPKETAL
PI3Kγ, sequence (P48736 whole entry, canonical isoform): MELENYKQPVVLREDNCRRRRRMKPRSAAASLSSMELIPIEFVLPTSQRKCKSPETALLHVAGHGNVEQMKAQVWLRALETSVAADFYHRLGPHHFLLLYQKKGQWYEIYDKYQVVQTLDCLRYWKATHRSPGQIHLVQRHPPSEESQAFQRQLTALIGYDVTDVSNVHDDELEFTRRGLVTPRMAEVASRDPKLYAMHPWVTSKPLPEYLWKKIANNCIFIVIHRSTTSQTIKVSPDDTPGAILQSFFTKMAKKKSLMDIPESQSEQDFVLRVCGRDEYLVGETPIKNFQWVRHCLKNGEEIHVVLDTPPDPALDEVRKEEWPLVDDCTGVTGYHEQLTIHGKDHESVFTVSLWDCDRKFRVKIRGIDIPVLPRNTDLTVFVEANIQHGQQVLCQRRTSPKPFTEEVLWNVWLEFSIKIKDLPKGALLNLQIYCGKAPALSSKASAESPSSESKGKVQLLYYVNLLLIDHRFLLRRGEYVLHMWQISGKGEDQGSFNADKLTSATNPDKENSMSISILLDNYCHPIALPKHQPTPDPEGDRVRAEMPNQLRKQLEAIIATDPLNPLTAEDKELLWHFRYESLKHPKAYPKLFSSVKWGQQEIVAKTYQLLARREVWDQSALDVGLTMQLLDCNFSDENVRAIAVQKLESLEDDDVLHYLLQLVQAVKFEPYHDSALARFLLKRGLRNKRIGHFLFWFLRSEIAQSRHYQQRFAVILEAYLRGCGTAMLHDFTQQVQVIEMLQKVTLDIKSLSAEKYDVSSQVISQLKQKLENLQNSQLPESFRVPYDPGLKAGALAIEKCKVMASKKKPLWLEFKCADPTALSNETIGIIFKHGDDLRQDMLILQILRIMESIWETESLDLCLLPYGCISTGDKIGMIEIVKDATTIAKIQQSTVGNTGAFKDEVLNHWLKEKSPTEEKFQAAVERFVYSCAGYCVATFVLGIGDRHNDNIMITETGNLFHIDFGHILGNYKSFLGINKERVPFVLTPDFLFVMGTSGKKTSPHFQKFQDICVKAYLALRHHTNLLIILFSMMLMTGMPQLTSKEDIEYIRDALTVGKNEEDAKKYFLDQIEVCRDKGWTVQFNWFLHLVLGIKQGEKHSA
Description for H9 cells: as §2, §3
Description for HH cells: as §2, §3
Description for p38 γ: All compounds are cell-permeable, reversible and well-characterized. For the biochemical screening, kinase assays in vitro were performed using ADP-Glo kit (Promega). The luminescent ADP-Glo kinase assay measures ADP produced from ATP consumption in the reaction.
Kinase assay in vitro: Kinase enzyme assays in vitro were performed using ADP-Glo kit (Promega, Wis.). The luminescent ADP-Glo kinase assay measures ADP produced from ATP consumption in a kinase enzyme reaction. […] Briefly, in this experiment, human recombinant p38 α, β, γ or δ protein (active full-length) expressed by baculovirus in sf9 insect cells (SignalChem, Vancouver, Canada) was homogenized in wells of white opaque 96-well microplates with the kinase buffer that consisted of 40 mM Tris-HCl (pH 7.5), 20 mM MgCl2, 0.1 mg/mL BSA and 50 μM DTT. […] Next, synthetic peptide substrates ([sequence]) were added to the mixture at final concentration of 0.2 μg/μL, followed by adding ATP at various concentrations. The 50 μL mixture was reacted at room temperature for 60 min. Then, ADP-Glo Reagent was incubated in the mixture at room temperature for 40 min, followed by incubation of Kinase Detection Reagent for another 30 min with minor modification as described in the supplier's instruction. Luminescence was measured at an integration time of 0.5 second using an automated BMG PHERAstar plate reader (BMG Labtech). Each experiment was conducted in duplicate or triplicate. […] IC50 values were determined using CalcuSyn software (Biosoft).
IC50 values were determined using CalcuSyn software (Biosoft) based on the data of Figure a.
IC50 values were determined using CalcuSyn software (Biosoft).
All compounds are cell-permeable, reversible, and well-characterized. For the biochemical screening, kinase assays in vitro were performed using ADP-GLO kit (Promega) following manufactures instructions. […] Briefly, for in vitro assay experiments, human recombinant p38 α, β, γ or δ proteins (active full-length) were from [sequence], and followed the protocol of the company. […] Then, ADP-GLO REAGENT was incubated in the mixture at room temperature for 40 min, followed by incubation of Kinase Detection Reagent for another 30 min. IC50 values were determined using [sequence] software (Biosoft, Cambridge, United Kingdom).

Regarding `Cc1nc(NC(=O)N2CCC[C@H]2C(N)=O)sc1-c1csc(C(C)(C)C)n1` [Compound A66], the “effect on viability of Hut78 cells” value in the test on Hut78 cells [1] is reported as “no influence”. The “phosphorylation of Akt at ser473” value in test [2] is given as “dose-dependent inhibition”. The “inhibitory kinase activity against p38γ” value at p38 γ is “no inhibitory kinase activities; also recorded: doesn't inhibit”.
For `CS(=O)(=O)N1CCN(Cc2cc3nc(-c4cccc5[nH]ncc45)nc(N4CCOCC4)c3s2)CC1` [GDC-0941, Pictilisib], the “effect on viability of Hut78 cells” value in the test on Hut78 cells [1] was “only modest reduction of cell viability”. Moreover, the “inhibitory kinase activity against p38γ” value at p38 γ was “no inhibitory kinase activities”.
As to `CC(C)(C)Cn1c(N)nc2ccc(-c3[nH]c(C(C)(C)C)nc3-c3ccc(F)cc3)nc21` [LY2228820], the p38γ inhibition result in the test with p38γ [3] is listed as “caused p38γ inhibition”.
With `Cn1c(=O)n(-c2ccc(C(C)(C)C#N)cc2)c2c3cc(-c4cnc5ccccc5c4)ccc3ncc21` [BEZ235, Dactolisib], in the test with Hut78 cells [1], the “effect on viability of Hut78 cells” value is “only modest reduction of cell viability”. The “inhibitory kinase activity against p38γ” value at p38 γ is “no inhibitory kinase activities”.
As for `Cc1ccc(=O)n(-c2ccccc2)c1` [Pirfenidone], the “p38γ inhibition in mice” value on p38γ [4] is reported as “inhibits p38γ in mice”. The IC50 in the test on Hut78 cells [1] was greater than 125000 nM; in the test with HH cells it was greater than 125000 nM; at p38 γ it was greater than 125 µM; in the test with CTCL cells [5] it was greater than 125 µM; with H9 cells it was greater than 125000 nM.
With `Nc1ncnc2c1ncn2[C@@H]1O[C@H](COP(=O)(O)OP(=O)(O)OP(=O)(O)O)[C@@H](O)[C@H]1O` [ATP], the Km in the test with p38γ [6] (p38γ, read-out: ATP Km) is 3.2 ± 0.4 µM.
For the molecule `Cc1ccc([N+](=O)[O-])cc1S(=O)(=O)N(C)/N=C/c1cnc2ccc(-c3ccc(F)nc3)cn12` [Compound F7D10], the IC50 in the test on Hut78 cells [1] is roughly 2500 nM; at p38 γ, roughly 3.4 µM.
`Cc1ccc([N+](=O)[O-])cc1S(=O)(=O)N(C)/N=C/c1cnc2ccc(Br)cn12` [Compound F7]: the “phosphorylation of p38γ substrate DLGH1 at Ser158” value in test [7] and in test [12] was “reduced phosphorylation” each time. Also, the inhibition of growth entry in the test with SS patient cells (FIG. 19E) is “inhibition of growth”; with healthy CD4+ T cells, “but not healthy CD4+ T cells”; with Hut78 cells [13] (Hut78 CTCL cells, FIG. 19E) it was “inhibition of growth”. Also, the induction of apoptosis entry with SS patient cells (data not shown) is “selective induction of apoptosis”; with Hut78 cells [13] (Hut78 CTCL cells, data not shown), “selective induction of apoptosis”. In addition, the IC50 at PI3Kγ was 76 nM; with Hut78 cells [1], 42 nM; in the test on HH cells, 34 nM; in the test on H9 cells, 46 nM. In the test with CTCL cells [8], the “killing of CTCL cells” value is “selectively kills CTCL cells at nanomolar concentrations”. In the test on CTCL cells [8] (compared with PI3K-specific inhibitor A66, FIG. 28), the “effectiveness against CTCL cells” value is reported as “more effective against CTCL cells than a PI3K-specific inhibitor”. In addition, the “inhibition of CTCL cell growth” value in the test on CTCL cells [8] (compared with Vorinostat (SAHA)) is “more potent inhibitor of CTCL cell growth than the FDA-approved HDACi Vorinostat”. In addition, the AnnexV_PI with Hut78 CTCL cell line was determined as 25.5 Percentage; in test [9] it was 17.8 Percentage. Also, the Live cells is given as 44.48 Percentage with Hut78 CTCL cell line and 42.797 Percentage in [9]. The “PI Stained” value with Hut78 CTCL cell line is reported as 29.53 Percentage; in [9], 35.2 Percentage. Further, the mechanism of inhibition entry in the test on p38γ [6] (versus ATP) is “competitive mechanism”. Besides, the “inhibition of kinase activity” value in the test with p38γ [10] is given as “selective, dose-dependent inhibition”; at p38δ it was “selective, dose-dependent inhibition”. The “protein expression of p38 gamma” value in the test on p38γ [11] was “reduces and eliminates the protein expression”. The “cell viability in Hut78 cells” value in the test on Hut78 cells [13] (FIG. 19B / FIG. 29A) was “reduced cell viability”. For the same molecule, the “proliferation of Hut78 cells” value in the test on Hut78 cells [13] (compared with Pirfenidone, FIG. 7) is reported as “reduced proliferation of Hut78 cells more effectively than Pirfenidone”. Further, the “inhibition of tumor growth” value with Hut78 xenografts (2 mg/kg, p=0.015, versus vehicle control) is reported as “statistically significant dose-dependent inhibition of tumor growth”; in the test on Hut78 xenografts (10 mg/kg, p=0.025, versus vehicle control) it was “statistically significant dose-dependent inhibition of tumor growth”.
